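Five concentrations, 48 hours, 96-well plates. TGI denotes the concentration required for complete inhibition of growth.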
Columns and labels:
Test in all cases: NCI tumour cell line growth inhibition, 48 h
BT-549 breast = system: BT-549 breast
COLO 205 colon = system: COLO 205 colon
DU-145 prostate = system: DU-145 prostate
EKVX NSCLC = system: EKVX NSCLC
HCT-116 colon = system: HCT-116 colon
HT29 colon = system: HT29 colon
K-562 leukemia = system: K-562 leukemia
KM12 colon = system: KM12 colon
MCF7 breast = system: MCF7 breast
OVCAR-4 ovarian = system: OVCAR-4 ovarian
RXF 393 renal = system: RXF 393 renal
SF-295 CNS = system: SF-295 CNS
SK-MEL-2 melanoma = system: SK-MEL-2 melanoma
SK-MEL-5 melanoma = system: SK-MEL-5 melanoma
TK-10 renal = system: TK-10 renal
UACC-62 melanoma = system: UACC-62 melanoma
UO-31 renal = system: UO-31 renal
M14 melanoma = system: M14 melanoma

Question: Which results are given for `Nc1cccnc1NCC1(CO)CCCC1`?
Answer: TGI (BT-549 breast): > 100 µM; TGI (COLO 205 colon): > 100 µM; TGI (DU-145 prostate): > 100 µM; TGI (EKVX NSCLC): > 100 µM; TGI (HCT-116 colon): > 100 µM; TGI (HT29 colon): > 100 µM; TGI (K-562 leukemia): > 100 µM; TGI (KM12 colon): > 100 µM; TGI (MCF7 breast): > 100 µM; TGI (OVCAR-4 ovarian): > 100 µM; TGI (RXF 393 renal): > 100 µM; TGI (SF-295 CNS): > 100 µM; TGI (SK-MEL-2 melanoma): > 100 µM; TGI (SK-MEL-5 melanoma): > 100 µM; TGI (TK-10 renal): > 100 µM; TGI (UACC-62 melanoma): > 100 µM; TGI (UO-31 renal): > 100 µM

Question: With `CC(=O)c1sc2c(c1OC(=O)c1ccco1)c(=O)n(-c1ccccc1)c(=S)n2-c1ccccc1` as the compound, how does the TGI (BT-549 breast) read?
Answer: 62.3 µM

Question: And the TGI (COLO 205 colon)?
Answer: 37.9 µM

Question: What about the TGI (DU-145 prostate) of the same compound?
Answer: 76.9 µM

Question: What about the TGI (EKVX NSCLC) of the same compound?
Answer: 59.1 µM

Question: What about the TGI (HCT-116 colon) of the same compound?
Answer: 41.1 µM

Question: And the TGI (HT29 colon)?
Answer: > 100 µM

Question: What about the TGI (K-562 leukemia) of the same compound?
Answer: > 100 µM

Question: And the TGI (KM12 colon)?
Answer: 48.5 µM

Question: What about the TGI (M14 melanoma) of the same compound?
Answer: 28.3 µM

Question: And the TGI (MCF7 breast)?
Answer: 55.4 µM

Question: And the TGI (OVCAR-4 ovarian)?
Answer: 95 µM

Question: And the TGI (RXF 393 renal)?
Answer: 28.2 µM

Question: What about the TGI (SF-295 CNS) of the same compound?
Answer: 49.2 µM

Question: And the TGI (SK-MEL-2 melanoma)?
Answer: 39.2 µM

Question: And the TGI (SK-MEL-5 melanoma)?
Answer: 18.9 µM

Question: And the TGI (TK-10 renal)?
Answer: 92.6 µM

Question: What about the TGI (UO-31 renal) of the same compound?
Answer: 49.3 µM

Question: How did the TGI (BT-549 breast) turn out when `COc1cc(/C=C2/SC(c3ccccc3)N(c3ccccc3Cl)C2=O)cc(OC)c1OC` (centres undefined) was run?
Answer: 85.1 µM

Question: And the TGI (COLO 205 colon)?
Answer: 95.5 µM

Question: What about the TGI (DU-145 prostate) of the same compound?
Answer: > 100 µM

Question: What about the TGI (EKVX NSCLC) of the same compound?
Answer: > 100 µM

Question: What about the TGI (HCT-116 colon) of the same compound?
Answer: 67.7 µM

Question: What about the TGI (K-562 leukemia) of the same compound?
Answer: > 100 µM

Question: What about the TGI (KM12 colon) of the same compound?
Answer: > 100 µM

Question: What about the TGI (M14 melanoma) of the same compound?
Answer: > 100 µM

Question: And the TGI (MCF7 breast)?
Answer: > 100 µM

Question: What about the TGI (OVCAR-4 ovarian) of the same compound?
Answer: > 100 µM

Question: And the TGI (RXF 393 renal)?
Answer: 70.2 µM

Question: What about the TGI (SF-295 CNS) of the same compound?
Answer: > 100 µM

Question: And the TGI (SK-MEL-2 melanoma)?
Answer: > 100 µM

Question: And the TGI (SK-MEL-5 melanoma)?
Answer: 33.6 µM

Question: What about the TGI (TK-10 renal) of the same compound?
Answer: > 100 µM

Question: What about the TGI (UACC-62 melanoma) of the same compound?
Answer: > 100 µM

Question: What about the TGI (UO-31 renal) of the same compound?
Answer: > 100 µM

Question: `CCC(C)(C)C1CCC2c3c([nH]c4ccccc34)C3C(=O)N(c4ccc(OC)cc4)C(=O)C3C2C1` (centres undefined) was tested. Which TGI (BT-549 breast) did it give?
Answer: 42.6 µM

Question: What about the TGI (COLO 205 colon) of the same compound?
Answer: 24.7 µM

Question: And the TGI (DU-145 prostate)?
Answer: 28.9 µM

Question: And the TGI (EKVX NSCLC)?
Answer: > 100 µM

Question: And the TGI (HCT-116 colon)?
Answer: 37.2 µM

Question: What about the TGI (HT29 colon) of the same compound?
Answer: 24.9 µM

Question: And the TGI (K-562 leukemia)?
Answer: > 100 µM

Question: What about the TGI (KM12 colon) of the same compound?
Answer: 12.2 µM

Question: What about the TGI (M14 melanoma) of the same compound?
Answer: > 100 µM

Question: And the TGI (MCF7 breast)?
Answer: 22.6 µM

Question: And the TGI (OVCAR-4 ovarian)?
Answer: > 100 µM

Question: And the TGI (RXF 393 renal)?
Answer: > 100 µM

Question: What about the TGI (SF-295 CNS) of the same compound?
Answer: 64.2 µM

Question: What about the TGI (SK-MEL-2 melanoma) of the same compound?
Answer: 40.3 µM

Question: What about the TGI (TK-10 renal) of the same compound?
Answer: 56.2 µM

Question: What about the TGI (UACC-62 melanoma) of the same compound?
Answer: > 100 µM

Question: And the TGI (UO-31 renal)?
Answer: > 100 µM

Question: For `Cc1ccc([N+](=O)[O-])cc1S(=O)(=O)Nc1ccc(C2=NN(c3ccc([N+](=O)[O-])cc3[N+](=O)[O-])C(c3cccs3)C2)cc1` (centres undefined), which TGI (BT-549 breast) is on record?
Answer: 49.8 µM

Question: What about the TGI (COLO 205 colon) of the same compound?
Answer: 54.5 µM

Question: What about the TGI (DU-145 prostate) of the same compound?
Answer: > 100 µM

Question: And the TGI (EKVX NSCLC)?
Answer: 59.2 µM

Question: And the TGI (HCT-116 colon)?
Answer: 29.3 µM

Question: And the TGI (HT29 colon)?
Answer: > 100 µM

Question: And the TGI (K-562 leukemia)?
Answer: > 100 µM

Question: And the TGI (KM12 colon)?
Answer: 55.6 µM

Question: What about the TGI (M14 melanoma) of the same compound?
Answer: 32.9 µM

Question: What about the TGI (MCF7 breast) of the same compound?
Answer: 80.1 µM

Question: What about the TGI (OVCAR-4 ovarian) of the same compound?
Answer: 77.3 µM

Question: What about the TGI (RXF 393 renal) of the same compound?
Answer: 54.3 µM

Question: And the TGI (SF-295 CNS)?
Answer: > 100 µM

Question: What about the TGI (SK-MEL-2 melanoma) of the same compound?
Answer: 32.7 µM

Question: What about the TGI (SK-MEL-5 melanoma) of the same compound?
Answer: 26.1 µM

Question: What about the TGI (TK-10 renal) of the same compound?
Answer: 81.7 µM

Question: And the TGI (UO-31 renal)?
Answer: > 100 µM

Question: What does the source list for `N#Cc1c(=O)n(-c2ccccc2)c(O)c2c(N)n[nH]c12`?
Answer: TGI (BT-549 breast): > 100 µM; TGI (COLO 205 colon): > 100 µM; TGI (DU-145 prostate): > 100 µM; TGI (EKVX NSCLC): > 100 µM; TGI (HCT-116 colon): > 100 µM; TGI (HT29 colon): > 100 µM; TGI (K-562 leukemia): > 100 µM; TGI (KM12 colon): > 100 µM; TGI (M14 melanoma): > 100 µM; TGI (MCF7 breast): > 100 µM; TGI (OVCAR-4 ovarian): > 100 µM; TGI (RXF 393 renal): > 100 µM; TGI (SK-MEL-2 melanoma): > 100 µM; TGI (SK-MEL-5 melanoma): > 100 µM; TGI (TK-10 renal): > 100 µM; TGI (UACC-62 melanoma): > 100 µM; TGI (UO-31 renal): > 100 µM

Question: Which TGI (BT-549 breast) does the source give for `CCOC(=O)c1c(NC(=O)c2cccs2)sc2c1CCC2` here?
Answer: > 100 µM

Question: What about the TGI (COLO 205 colon) of the same compound?
Answer: > 100 µM

Question: And the TGI (DU-145 prostate)?
Answer: > 100 µM

Question: What about the TGI (EKVX NSCLC) of the same compound?
Answer: > 100 µM

Question: What about the TGI (HCT-116 colon) of the same compound?
Answer: > 100 µM

Question: What about the TGI (HT29 colon) of the same compound?
Answer: > 100 µM

Question: And the TGI (K-562 leukemia)?
Answer: > 100 µM

Question: And the TGI (KM12 colon)?
Answer: > 100 µM

Question: What about the TGI (M14 melanoma) of the same compound?
Answer: > 100 µM

Question: And the TGI (MCF7 breast)?
Answer: > 100 µM

Question: What about the TGI (RXF 393 renal) of the same compound?
Answer: > 100 µM

Question: And the TGI (SF-295 CNS)?
Answer: > 100 µM

Question: What about the TGI (SK-MEL-2 melanoma) of the same compound?
Answer: > 100 µM

Question: What about the TGI (SK-MEL-5 melanoma) of the same compound?
Answer: > 100 µM

Question: And the TGI (TK-10 renal)?
Answer: > 100 µM

Question: And the TGI (UACC-62 melanoma)?
Answer: > 100 µM

Question: And the TGI (UO-31 renal)?
Answer: > 100 µM
